{
  "source": "ChEMBL document CHEMBL1155237",
  "about": "“Selective inhibitors of the mutant B-Raf pathway: discovery of a potent and orally bioavailable aminoisoquinoline” (J Med Chem, 2009)",
  "key": {"[1]": {"target": "LIM domain kinase 1 (Homo sapiens) (UniProt P53667)", "assay": "Inhibition of LIMK1 assessed as enzyme activity at 1 uM relative to untreated control", "set-up": "scale not given: the % may be the effect or the level left"}, "[2]": {"target": "Dual specificity protein kinase TTK (Homo sapiens) (UniProt P33981)", "assay": "Inhibition of TTK assessed as enzyme activity at 1 uM relative to untreated control", "set-up": "scale not given: the % may be the effect or the level left"}, "[3]": {"test_system": "Mast/stem cell growth factor receptor Kit (Homo sapiens), P10721 [V559D,T670I]", "sequence (P10721 whole entry V559D/T670I)": "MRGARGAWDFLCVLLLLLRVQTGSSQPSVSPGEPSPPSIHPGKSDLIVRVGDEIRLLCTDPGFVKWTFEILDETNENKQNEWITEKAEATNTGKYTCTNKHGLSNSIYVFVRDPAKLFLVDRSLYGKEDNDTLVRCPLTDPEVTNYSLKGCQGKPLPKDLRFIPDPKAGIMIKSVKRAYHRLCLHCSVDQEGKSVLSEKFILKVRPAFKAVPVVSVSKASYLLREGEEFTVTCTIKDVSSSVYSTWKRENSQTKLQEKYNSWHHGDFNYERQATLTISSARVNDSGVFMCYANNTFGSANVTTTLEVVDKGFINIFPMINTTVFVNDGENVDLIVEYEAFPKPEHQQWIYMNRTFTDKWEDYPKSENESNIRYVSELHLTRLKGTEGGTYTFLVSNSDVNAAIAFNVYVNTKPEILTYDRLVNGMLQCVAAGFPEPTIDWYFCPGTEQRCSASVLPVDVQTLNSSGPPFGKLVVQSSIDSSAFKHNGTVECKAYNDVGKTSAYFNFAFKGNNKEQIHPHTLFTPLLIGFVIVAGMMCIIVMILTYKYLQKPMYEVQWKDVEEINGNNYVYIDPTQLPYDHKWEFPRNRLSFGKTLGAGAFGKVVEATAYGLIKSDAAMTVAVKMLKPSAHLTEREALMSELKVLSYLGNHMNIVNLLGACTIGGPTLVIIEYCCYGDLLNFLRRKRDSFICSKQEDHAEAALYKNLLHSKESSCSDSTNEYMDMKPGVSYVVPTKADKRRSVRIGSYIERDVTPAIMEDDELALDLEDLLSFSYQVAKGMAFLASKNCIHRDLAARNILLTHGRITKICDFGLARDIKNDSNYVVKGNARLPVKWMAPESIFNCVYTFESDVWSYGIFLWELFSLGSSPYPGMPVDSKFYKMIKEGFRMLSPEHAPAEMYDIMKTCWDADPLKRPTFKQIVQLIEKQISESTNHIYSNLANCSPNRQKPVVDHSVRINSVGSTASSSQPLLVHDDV", "assay": "Inhibition of KIT V559D,T670I mutant assessed as enzyme activity at 1 uM relative to untreated control", "set-up": "scale not given: the % may be the effect or the level left"}, "[4]": {"target": "Ribosomal protein S6 kinase alpha-4 (Homo sapiens) (UniProt O75676)", "assay": "Inhibition of RPS6KA4 kinase domain 1 assessed as enzyme activity at 1 uM relative to untreated control", "set-up": "scale not given: the % may be the effect or the level left"}, "[5]": {"target": "Dual specificity protein kinase CLK4 (Homo sapiens) (UniProt Q9HAZ1)", "sequence (Q9HAZ1 whole entry, looked up)": "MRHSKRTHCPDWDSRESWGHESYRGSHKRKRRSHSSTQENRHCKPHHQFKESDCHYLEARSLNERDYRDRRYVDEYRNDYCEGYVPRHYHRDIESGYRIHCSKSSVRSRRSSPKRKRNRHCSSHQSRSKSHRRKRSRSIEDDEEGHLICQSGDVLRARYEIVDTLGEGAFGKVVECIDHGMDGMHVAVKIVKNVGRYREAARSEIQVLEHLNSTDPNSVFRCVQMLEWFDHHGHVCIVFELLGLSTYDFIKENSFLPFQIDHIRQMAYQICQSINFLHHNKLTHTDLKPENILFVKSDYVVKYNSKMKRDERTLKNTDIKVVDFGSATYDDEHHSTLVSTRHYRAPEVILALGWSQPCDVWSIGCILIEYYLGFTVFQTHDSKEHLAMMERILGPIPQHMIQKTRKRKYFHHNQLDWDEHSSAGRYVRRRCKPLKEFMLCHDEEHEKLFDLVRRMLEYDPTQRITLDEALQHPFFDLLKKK", "assay": "Inhibition of CLK4 assessed as enzyme activity at 1 uM relative to untreated control", "set-up": "scale not given: the % may be the effect or the level left"}, "[6]": {"target": "Interleukin-1 receptor-associated kinase 3 (Homo sapiens) (UniProt Q9Y616)", "sequence (Q9Y616 whole entry)": "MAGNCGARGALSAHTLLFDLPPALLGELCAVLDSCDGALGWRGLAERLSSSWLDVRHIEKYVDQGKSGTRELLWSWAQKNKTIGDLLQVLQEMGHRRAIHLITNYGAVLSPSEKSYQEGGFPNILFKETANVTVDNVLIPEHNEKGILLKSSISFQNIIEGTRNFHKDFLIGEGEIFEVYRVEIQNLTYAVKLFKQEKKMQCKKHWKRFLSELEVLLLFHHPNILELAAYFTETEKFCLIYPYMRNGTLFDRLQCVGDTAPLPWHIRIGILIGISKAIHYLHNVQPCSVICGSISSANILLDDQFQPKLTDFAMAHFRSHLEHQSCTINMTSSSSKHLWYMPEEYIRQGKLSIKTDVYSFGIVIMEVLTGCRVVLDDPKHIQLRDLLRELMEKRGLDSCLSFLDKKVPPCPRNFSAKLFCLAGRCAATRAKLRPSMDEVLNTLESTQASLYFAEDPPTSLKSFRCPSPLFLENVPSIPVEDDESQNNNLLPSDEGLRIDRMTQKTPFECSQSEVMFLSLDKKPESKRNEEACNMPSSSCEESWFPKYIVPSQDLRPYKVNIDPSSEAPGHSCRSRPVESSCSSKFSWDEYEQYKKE", "assay": "Inhibition of IRAK3 assessed as enzyme activity at 1 uM relative to untreated control", "set-up": "scale not given: the % may be the effect or the level left"}, "[7]": {"target": "Cyclin-dependent kinase 5 (Homo sapiens) (UniProt Q00535)", "assay": "Inhibition of CDK5 assessed as enzyme activity at 1 uM relative to untreated control", "set-up": "scale not given: the % may be the effect or the level left"}, "[8]": {"target": "Protein kinase C delta type (Homo sapiens) (UniProt Q05655)", "sequence (Q05655 whole entry, looked up)": "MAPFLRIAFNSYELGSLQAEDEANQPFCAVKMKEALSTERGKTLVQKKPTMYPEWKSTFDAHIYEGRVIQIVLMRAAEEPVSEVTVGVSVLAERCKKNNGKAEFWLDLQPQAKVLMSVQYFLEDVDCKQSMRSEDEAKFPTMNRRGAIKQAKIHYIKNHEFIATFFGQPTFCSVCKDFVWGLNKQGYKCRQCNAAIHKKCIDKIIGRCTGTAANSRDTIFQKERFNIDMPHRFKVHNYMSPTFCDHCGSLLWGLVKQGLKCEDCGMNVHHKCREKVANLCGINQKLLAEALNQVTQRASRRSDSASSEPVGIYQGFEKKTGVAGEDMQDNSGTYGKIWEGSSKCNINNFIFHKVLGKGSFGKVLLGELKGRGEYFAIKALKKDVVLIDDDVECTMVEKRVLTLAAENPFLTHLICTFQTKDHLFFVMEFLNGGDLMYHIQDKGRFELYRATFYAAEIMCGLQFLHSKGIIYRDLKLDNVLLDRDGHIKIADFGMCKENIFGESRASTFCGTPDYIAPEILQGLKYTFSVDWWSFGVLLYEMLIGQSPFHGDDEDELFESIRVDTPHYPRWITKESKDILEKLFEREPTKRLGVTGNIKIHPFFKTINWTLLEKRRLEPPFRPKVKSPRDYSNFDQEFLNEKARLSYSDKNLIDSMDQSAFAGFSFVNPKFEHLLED", "assay": "Inhibition of PRKCdelta assessed as enzyme activity at 1 uM relative to untreated control", "set-up": "scale not given: the % may be the effect or the level left"}, "[9]": {"test_system": "Tyrosine-protein kinase ABL1 (Homo sapiens), P00519 [H396P]", "assay": "Inhibition of ABL1 H396P mutant assessed as enzyme activity at 1 uM relative to untreated control", "set-up": "scale not given: the % may be the effect or the level left"}, "[10]": {"target": "Tyrosine-protein kinase HCK (Homo sapiens) (UniProt P08631)", "assay": "Inhibition of HCK assessed as enzyme activity at 1 uM relative to untreated control", "set-up": "scale not given: the % may be the effect or the level left"}, "[11]": {"target": "Calcium/calmodulin-dependent protein kinase type II subunit gamma (Homo sapiens) (UniProt Q13555)", "assay": "Inhibition of CAMK2G assessed as enzyme activity at 1 uM relative to untreated control", "set-up": "scale not given: the % may be the effect or the level left"}, "[12]": {"target": "Ephrin type-A receptor 6 (Homo sapiens) (UniProt Q9UF33)", "assay": "Inhibition of EPHA6 assessed as enzyme activity at 1 uM relative to untreated control", "set-up": "scale not given: the % may be the effect or the level left"}, "[13]": {"assay": "Elimination half life in CD1 mouse", "type": "ADME, organism-based", "conditions": "in vivo, read-out: beta t1/2 (converted)"}, "[14]": {"target": "Atypical kinase COQ8B, mitochondrial (Homo sapiens) (UniProt Q96D53)", "assay": "Inhibition of ADCK4 assessed as enzyme activity at 1 uM relative to untreated control", "set-up": "scale not given: the % may be the effect or the level left"}, "[15]": {"target": "Ribosomal protein S6 kinase alpha-6 (Homo sapiens) (UniProt Q9UK32)", "assay": "Inhibition of RPS6KA6 kinase domain 1 assessed as enzyme activity at 1 uM relative to untreated control", "set-up": "scale not given: the % may be the effect or the level left"}, "[16]": {"test_system": "Tyrosine-protein kinase ABL1 (Homo sapiens), P00519 [Y253F]", "assay": "Inhibition of ABL1 Y253F mutant assessed as enzyme activity at 1 uM relative to untreated control", "set-up": "scale not given: the % may be the effect or the level left"}, "[17]": {"target": "Phosphorylase b kinase gamma catalytic chain, liver/testis isoform (Homo sapiens) (UniProt P15735)", "assay": "Inhibition of PHKG2 assessed as enzyme activity at 1 uM relative to untreated control", "set-up": "scale not given: the % may be the effect or the level left"}, "[18]": {"target": "Serine/threonine-protein kinase RIO1 (Homo sapiens) (UniProt Q9BRS2)", "assay": "Inhibition of RIOK1 assessed as enzyme activity at 1 uM relative to untreated control", "set-up": "scale not given: the % may be the effect or the level left"}, "[19]": {"target": "Mitogen-activated protein kinase 8 (Homo sapiens) (UniProt P45983)", "assay": "Inhibition of JNK1 assessed as enzyme activity at 1 uM relative to untreated control", "set-up": "scale not given: the % may be the effect or the level left"}, "[20]": {"target": "Tyrosine-protein kinase JAK1 (Homo sapiens) (UniProt P23458)", "assay": "Inhibition of JAK1 kinase domain 1 assessed as enzyme activity at 1 uM relative to untreated control", "set-up": "scale not given: the % may be the effect or the level left"}, "[21]": {"target": "Ephrin type-A receptor 1 (Homo sapiens) (UniProt P21709)", "assay": "Inhibition of EPHA1 assessed as enzyme activity at 1 uM relative to untreated control", "set-up": "scale not given: the % may be the effect or the level left"}, "[22]": {"target": "Fibroblast growth factor receptor 2 (Homo sapiens) (UniProt P21802)", "sequence (P21802 22-821 limits assumed)": "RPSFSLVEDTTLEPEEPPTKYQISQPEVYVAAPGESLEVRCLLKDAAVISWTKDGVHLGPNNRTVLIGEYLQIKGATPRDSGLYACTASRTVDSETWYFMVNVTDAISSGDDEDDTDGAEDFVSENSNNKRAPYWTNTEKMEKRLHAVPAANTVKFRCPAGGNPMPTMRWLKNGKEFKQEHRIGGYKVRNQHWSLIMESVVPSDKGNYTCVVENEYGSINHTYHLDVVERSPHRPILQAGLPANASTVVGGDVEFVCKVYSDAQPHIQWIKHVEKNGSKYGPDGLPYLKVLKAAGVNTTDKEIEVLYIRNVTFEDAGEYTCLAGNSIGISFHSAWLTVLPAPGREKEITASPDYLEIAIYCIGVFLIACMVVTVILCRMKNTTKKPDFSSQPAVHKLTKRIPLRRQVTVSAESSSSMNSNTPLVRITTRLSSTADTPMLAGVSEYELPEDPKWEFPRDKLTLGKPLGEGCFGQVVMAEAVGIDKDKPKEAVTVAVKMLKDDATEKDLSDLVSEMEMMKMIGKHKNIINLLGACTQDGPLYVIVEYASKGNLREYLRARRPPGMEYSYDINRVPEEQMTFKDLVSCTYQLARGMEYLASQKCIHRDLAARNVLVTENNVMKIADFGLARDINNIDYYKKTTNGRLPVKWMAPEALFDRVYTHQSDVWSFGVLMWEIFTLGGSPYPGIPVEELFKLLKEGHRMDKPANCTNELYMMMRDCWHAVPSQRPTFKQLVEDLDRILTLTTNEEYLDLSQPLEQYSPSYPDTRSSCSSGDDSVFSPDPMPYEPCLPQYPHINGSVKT", "assay": "Inhibition of FGFR2 assessed as enzyme activity at 1 uM relative to untreated control", "set-up": "scale not given: the % may be the effect or the level left"}, "[23]": {"target": "Mitogen-activated protein kinase 14 (Homo sapiens, UniProt Q16539)", "assay": "Inhibition of p38alpha"}, "[24]": {"target": "Serine/threonine-protein kinase Nek7 (Homo sapiens) (UniProt Q8TDX7)", "sequence (Q8TDX7 whole entry, looked up)": "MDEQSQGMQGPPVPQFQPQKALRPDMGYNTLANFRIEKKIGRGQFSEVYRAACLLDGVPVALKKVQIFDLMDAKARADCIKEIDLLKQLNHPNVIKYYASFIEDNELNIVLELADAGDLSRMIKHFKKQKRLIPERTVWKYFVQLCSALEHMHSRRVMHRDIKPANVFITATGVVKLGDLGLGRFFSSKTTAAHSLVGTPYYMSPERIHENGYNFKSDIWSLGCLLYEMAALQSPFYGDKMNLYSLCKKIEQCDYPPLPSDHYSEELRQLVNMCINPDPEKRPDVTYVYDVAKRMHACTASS", "assay": "Inhibition of NEK7 assessed as enzyme activity at 1 uM relative to untreated control", "set-up": "scale not given: the % may be the effect or the level left"}, "[25]": {"target": "Casein kinase I isoform gamma-2 (Homo sapiens) (UniProt P78368)", "assay": "Inhibition of CSNK1G2 assessed as enzyme activity at 1 uM relative to untreated control", "set-up": "scale not given: the % may be the effect or the level left"}, "[26]": {"target": "LIM domain kinase 2 (Homo sapiens) (UniProt P53671)", "assay": "Inhibition of LIMK2 assessed as enzyme activity at 1 uM relative to untreated control", "set-up": "scale not given: the % may be the effect or the level left"}, "[27]": {"target": "Serine/threonine-protein kinase RIO2 (Homo sapiens) (UniProt Q9BVS4)", "sequence (Q9BVS4 whole entry, looked up)": "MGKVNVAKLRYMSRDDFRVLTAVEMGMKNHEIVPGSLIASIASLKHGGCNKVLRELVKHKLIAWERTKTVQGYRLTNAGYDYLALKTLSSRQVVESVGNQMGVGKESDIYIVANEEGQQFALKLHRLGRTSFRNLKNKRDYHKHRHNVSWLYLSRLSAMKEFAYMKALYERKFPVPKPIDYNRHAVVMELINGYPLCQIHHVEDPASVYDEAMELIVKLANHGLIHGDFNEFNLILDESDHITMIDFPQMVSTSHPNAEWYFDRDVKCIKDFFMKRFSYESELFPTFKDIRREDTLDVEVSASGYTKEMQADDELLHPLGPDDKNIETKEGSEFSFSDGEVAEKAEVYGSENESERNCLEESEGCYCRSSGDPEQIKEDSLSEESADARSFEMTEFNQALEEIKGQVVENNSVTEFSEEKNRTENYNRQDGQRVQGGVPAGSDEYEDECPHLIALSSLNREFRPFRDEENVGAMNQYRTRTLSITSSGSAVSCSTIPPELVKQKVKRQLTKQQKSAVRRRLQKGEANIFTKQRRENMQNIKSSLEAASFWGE", "assay": "Inhibition of RIOK2 assessed as enzyme activity at 1 uM relative to untreated control", "set-up": "scale not given: the % may be the effect or the level left"}, "[28]": {"test_system": "Receptor-type tyrosine-protein kinase FLT3 (Homo sapiens), P36888 [D835H]", "assay": "Inhibition of FLT3 D835H mutant assessed as enzyme activity at 1 uM relative to untreated control", "set-up": "scale not given: the % may be the effect or the level left"}, "[29]": {"target": "NUAK family SNF1-like kinase 1 (Homo sapiens) (UniProt O60285)", "assay": "Inhibition of ARK5 assessed as enzyme activity at 1 uM relative to untreated control", "set-up": "scale not given: the % may be the effect or the level left"}, "[30]": {"target": "Mitogen-activated protein kinase 1 (Homo sapiens) (UniProt P28482)", "assay": "Inhibition of ERK2 assessed as enzyme activity at 1 uM relative to untreated control", "set-up": "scale not given: the % may be the effect or the level left"}, "[31]": {"target": "Mitogen-activated protein kinase kinase kinase 20 (Homo sapiens) (UniProt Q9NYL2)", "assay": "Inhibition of ZAK assessed as enzyme activity at 1 uM relative to untreated control", "set-up": "scale not given: the % may be the effect or the level left"}, "[32]": {"target": "Myosin light chain kinase family member 4 (Homo sapiens) (UniProt Q86YV6)", "sequence (Q86YV6 whole entry)": "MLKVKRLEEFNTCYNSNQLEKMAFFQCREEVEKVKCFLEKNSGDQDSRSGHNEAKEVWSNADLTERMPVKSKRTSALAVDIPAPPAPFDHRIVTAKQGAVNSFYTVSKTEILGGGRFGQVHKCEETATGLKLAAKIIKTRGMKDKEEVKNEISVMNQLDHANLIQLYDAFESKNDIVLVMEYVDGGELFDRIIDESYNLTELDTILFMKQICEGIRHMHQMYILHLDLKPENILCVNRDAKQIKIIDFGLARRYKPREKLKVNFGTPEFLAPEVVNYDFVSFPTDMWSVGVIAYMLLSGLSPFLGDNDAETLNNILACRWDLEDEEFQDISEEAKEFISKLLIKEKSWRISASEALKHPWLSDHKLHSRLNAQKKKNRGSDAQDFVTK", "assay": "Inhibition of SgK085 assessed as enzyme activity at 1 uM relative to untreated control", "set-up": "scale not given: the % may be the effect or the level left"}, "[33]": {"target": "Mitogen-activated protein kinase kinase kinase kinase 2 (Homo sapiens) (UniProt Q12851)", "assay": "Inhibition of MAP4K2 assessed as enzyme activity at 1 uM relative to untreated control", "set-up": "scale not given: the % may be the effect or the level left"}, "[34]": {"target": "Vascular endothelial growth factor receptor 1 (Homo sapiens) (UniProt P17948)", "assay": "Inhibition of FLT1 assessed as enzyme activity at 1 uM relative to untreated control", "set-up": "scale not given: the % may be the effect or the level left"}, "[35]": {"target": "Serine/threonine-protein kinase pim-3 (Homo sapiens) (UniProt Q86V86)", "assay": "Inhibition of PIM3 assessed as enzyme activity at 1 uM relative to untreated control", "set-up": "scale not given: the % may be the effect or the level left"}, "[36]": {"test_system": "Epidermal growth factor receptor (Homo sapiens), P00533 [L861Q]", "assay": "Inhibition of EGFR L861Q mutant assessed as enzyme activity at 1 uM relative to untreated control", "type": "protein assay", "set-up": "scale not given: the % may be the effect or the level left"}, "[37]": {"target": "Cyclin-dependent kinase 7 (Homo sapiens) (UniProt P50613)", "assay": "Inhibition of CDK7 assessed as enzyme activity at 1 uM relative to untreated control", "set-up": "scale not given: the % may be the effect or the level left"}, "[38]": {"target": "Wee1-like protein kinase (Homo sapiens) (UniProt P30291)", "assay": "Inhibition of WEE1 assessed as enzyme activity at 1 uM relative to untreated control", "set-up": "scale not given: the % may be the effect or the level left"}},
  "data": [
    {"smiles": "Cc1ccc2c(Nc3ccc(Cl)cc3)nccc2c1Nc1ncccc1-c1ncnc2[nH]cnc12.Cl.Cl.Cl", "values": [
      {"measurement": "Activity", "setting": "[1]", "result": 55, "unit": "%"},
      {"measurement": "Activity", "setting": "[2]", "result": 100, "unit": "%"},
      {"measurement": "Activity", "setting": "[3]", "result": 77, "unit": "%"},
      {"measurement": "Activity", "setting": "[4]", "result": 100, "unit": "%"},
      {"measurement": "Activity", "setting": "[5]", "result": 100, "unit": "%"},
      {"measurement": "Activity", "setting": "[6]", "result": 81, "unit": "%"},
      {"measurement": "Activity", "setting": "[7]", "result": 100, "unit": "%"},
      {"measurement": "Activity", "setting": "[8]", "result": 88, "unit": "%"},
      {"measurement": "Activity", "setting": "[9]", "result": 84, "unit": "%"},
      {"measurement": "Activity", "setting": "[10]", "result": 53, "unit": "%"},
      {"measurement": "Activity", "setting": "[11]", "result": 98, "unit": "%"},
      {"measurement": "Activity", "setting": "[12]", "result": 2.8, "unit": "%"},
      {"measurement": "half-life", "setting": "[13]", "result": 3.3, "unit": "h"},
      {"measurement": "Activity", "setting": "[14]", "result": 77, "unit": "%"},
      {"measurement": "Activity", "setting": "[15]", "result": 92, "unit": "%"},
      {"measurement": "Activity", "setting": "[16]", "result": 61, "unit": "%"},
      {"measurement": "Activity", "setting": "[17]", "result": 100, "unit": "%"},
      {"measurement": "Activity", "setting": "[18]", "result": 92, "unit": "%"},
      {"measurement": "Activity", "setting": "[19]", "result": 2.7, "unit": "%"},
      {"measurement": "Activity", "setting": "[20]", "result": 98, "unit": "%"},
      {"measurement": "Activity", "setting": "[21]", "result": 4.6, "unit": "%"},
      {"measurement": "Activity", "setting": "[22]", "result": 38, "unit": "%"},
      {"measurement": "IC50", "setting": "[23]", "result": "> 1.6", "unit": "µM"},
      {"measurement": "Activity", "setting": "[24]", "result": 88, "unit": "%"},
      {"measurement": "Activity", "setting": "[25]", "result": 100, "unit": "%"},
      {"measurement": "Activity", "setting": "[26]", "result": 98, "unit": "%"},
      {"measurement": "Activity", "setting": "[27]", "result": 100, "unit": "%"},
      {"measurement": "Activity", "setting": "[28]", "result": 99, "unit": "%"},
      {"measurement": "Activity", "setting": "[29]", "result": 100, "unit": "%"},
      {"measurement": "Activity", "setting": "[30]", "result": 100, "unit": "%"},
      {"measurement": "Activity", "setting": "[31]", "result": 87, "unit": "%"},
      {"measurement": "Activity", "setting": "[32]", "result": 100, "unit": "%"},
      {"measurement": "Activity", "setting": "[33]", "result": 100, "unit": "%"},
      {"measurement": "Activity", "setting": "[34]", "result": 2.2, "unit": "%"},
      {"measurement": "Activity", "setting": "[35]", "result": 100, "unit": "%"},
      {"measurement": "Activity", "setting": "[36]", "result": 86, "unit": "%"},
      {"measurement": "Activity", "setting": "[37]", "result": 100, "unit": "%"},
      {"measurement": "Activity", "setting": "[38]", "result": 92, "unit": "%"}
    ]}
  ]
}
